“And” between values parts separate entries of the source, which are not always exact repeats. Equal entries are not always repeated.
Legend:
[1] = BET active (specific) surface area analysis, nitrogen adsorbate; assay type: physicochemical; details: for Specific surface area: final product of the synthesis, amorphous powder dried under vacuum at 25-30° C.; for Surface area of the sample: after one blending with water and acetone mixture and drying under vacuum at 50-55° C.
Experimental: The analysis of BET is according to the method described as: out gassing a portion of the test sample, about 100 mg at 90° C. for 1 hour at ambient pressure using nitrogen as the adsorbate gas.

[2] = Intrinsic dissolution rate; assay type: physicochemical; details: final product of the synthesis, amorphous powder

Q: For O=C([O-])CC(O)(CC(=O)[O-])C(=O)[O-].[Fe+3] [Ferric Citrate, Iron (III) 2-hydroxypropane-1,2,3-tricarboxylate, reference compound], which surface area ([1]; starting Ferric Citrate before treatment with water and acetone mixture) is on record?
A: 30.0 Sq.m/g and 28.6 Sq.m/g

Q: For Ferric Citrate [Example III], which Specific surface area [1] is on record?
A: 12.0 sq.m/g

Q: Which Specific surface area [1] does the source give for Ferric Citrate [Example II] here?
A: 10.6 sq.m/g

Q: What does the source list for Ferric Citrate [Example IV]?
A: Intrinsic dissolution rate [2]: 0.231 mg/sq.cm/min; Specific surface area [1]: 11.0 sq.m/g

Q: Which Specific surface area [1] does the source give for Ferric Citrate [Example I] here?
A: 12.36 sq.m/g

Q: Which results are given for Ferric Citrate [Example VII]?
A: Surface area of the sample [1]: 20.0 sq.m/g; surface area ([1]; after repeating the same water and acetone process): 12.5 sq.m/g

Q: Which “Surface area of the sample” value [1] does the source give for Ferric Citrate [Example VI] here?
A: 10.3 sq.m/g

Q: Which results are given for Ferric Citrate [Example V]?
A: Intrinsic dissolution rate [2]: 0.31 mg/sq.cm/min; Specific surface area [1]: 7.8 sq.m/g

From patent US10882813B2, “Method for the synthesis of ferric oraganic compounds” (Biophore India Pharmaceuticals Pvt. Ltd., priority 2014, dated 2021)
